Patent publication US10793580B2, “Substituted pyrazoloazepin-8-ones and their use as phosphodiesterase inhibitors” (LEO Pharma A/S, priority 2016, dated 2020)
Where two headings read alike, the source gives them in different places.

Molecular target: human PDE4D catalytic domain (Homo sapiens (Human), UniProt Q08499)
Test: PDE4 Assay (TR-FRET, FAM-cAMP cleavage)
Type: biochemical
Details: read-out: PDE4 IC50 range
In short: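 PDE4D catalytic domain (S380-L740) incubated briefly with unlabelled cAMP plus FAM-cAMP and titrated compound. Reaction stopped with binding buffer holding metal-ion nanoparticles that bind AMP phospho groups and Tb donor, and AMP formation read by TR-FRET. IC50 versus controls, reported as ranges (nM).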

[1] = human PDE4D catalytic domain (UniProt Q08499 [S380-L740]), 50% inhibition of substrate cleavage

Sequence of human PDE4D catalytic domain (Q08499 380-740): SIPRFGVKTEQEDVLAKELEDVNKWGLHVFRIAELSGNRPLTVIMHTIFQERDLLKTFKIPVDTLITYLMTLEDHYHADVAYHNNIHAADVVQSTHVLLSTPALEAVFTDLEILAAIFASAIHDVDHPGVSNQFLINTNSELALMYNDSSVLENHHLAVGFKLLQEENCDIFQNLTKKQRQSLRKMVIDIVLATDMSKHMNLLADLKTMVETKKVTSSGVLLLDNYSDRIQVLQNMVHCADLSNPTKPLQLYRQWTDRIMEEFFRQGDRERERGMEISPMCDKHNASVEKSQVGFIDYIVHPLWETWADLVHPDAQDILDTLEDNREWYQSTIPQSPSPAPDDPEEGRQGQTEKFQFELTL

Row | Structure (SMILES) | IC50 [1] [nM] | also measured
1 | CCn1nc(C[C@@H](C)COC(=O)c2cccc(C(=O)N(C)C)c2)c2c1C(=O)NCC1(CCOCC1)C2 [Example 180, [(2R)-3-(1-ethyl-8-oxo-spiro[6,7-dihydro-4H-pyrazolo[3,4-c]azepine-5,4′-tetrahydropyran]-3-yl)-2-methyl-propyl] 3-(di-methylcarbamoyl)benzoate] | < 100 | 
2 | CCn1nc(CCCOC(=O)c2cc(F)ccc2C)c2c1C(=O)NCC1(CCOCC1)C2 [Example 20, 3-(1-ethyl-8-oxo-spiro[6,7-dihydro-4H-pyrazolo[3,4-c]azepine-5,4′-tetrahydropyran]-3-yl)propyl 5-fluoro-2-methyl-benzoate] | < 100 | 
3 | CCn1nc(C[C@@H](C)COC(=O)c2cncs2)c2c1C(=O)NCC1(CCOCC1)C2 [Example 286, [(2R)-3-(1-ethyl-8-oxo-spiro[6,7-dihydro-4H-pyrazolo[3,4-c]azepine-5,4′-tetrahydropyran]-3-yl)-2-methyl-propyl] thiazole-5-carboxylate] |  | IC50 (Table 16, Examples 277-296): < 100 nM
4 | CCc1cc(C(=O)OCCCc2nn(CC)c3c2CC2(CCOCC2)CNC3=O)nn1C [Example 259, 3-(1-ethyl-8-oxo-spiro[6,7-dihydro-4H-pyrazolo[3,4-c]azepine-5,4′-tetrahydro-pyran]-3-yl)propyl 5-ethyl-1-methyl-pyrazole-3-carboxylate] | < 100 | 
5 | CCn1nc(CCCCOC(=O)c2cnc(C)nc2)c2c1C(=O)NCC1(CCOCC1)C2 [Example 271, 4-(1-ethyl-8-oxo-spiro[6,7-dihydro-4H-pyrazolo[3,4-c]azepine-5,4′-tetrahydropyran]-3-yl)butyl 2-methylpyrimidine-5-carboxylate] | < 100 | 
6 | CCn1nc(CCCOC(=O)c2cccc(S(C)(=O)=O)c2)c2c1C(=O)NCC1(CCOCC1)C2 [Example 63, 3-(1-ethyl-8-oxo-spiro[6,7-dihydro-4H-pyrazolo[3,4-c]azepine-5,4′-tetrahydropyran]-3-yl)propyl 3-methylsulfonylbenzoate] | < 100 | 
7 | CCn1nc(C[C@@H](C)COC(=O)c2cccc(S(=O)(=O)N3CCCC3)c2)c2c1C(=O)NCC1(CCOCC1)C2 [Example 163, [(2R)-3-(1-ethyl-8-oxo-spiro[6,7-dihydro-4H-pyrazolo[6,7-c]azepine-5,4′-tetrahydropyran]-3-yl)-2-methyl-propyl] 3-pyrrolidin-1-ylsulfonylbenzoate] | < 100 | 
8 | CCn1nc(C[C@@H](C)COC(=O)c2ccc(C(C)=O)cc2)c2c1C(=O)NCC1(CCOCC1)C2 [Example 153, [(2R)-3-(1-ethyl-8-oxo-spiro[6,7-dihydro-4H-pyrazolo[3,4-c]azepine-5,4′-tetrahydropyran]-3-yl)-2-methyl-propyl] 4-acetylbenzoate] | < 100 | 
9 | CCn1nc(CCCOC(=O)c2cccc(S(=O)(=O)C(C)C)c2)c2c1C(=O)NCC1(CCOCC1)C2 [Example 92, 3-(1-ethyl-8-oxo-spiro[6,7-dihydro-4H-pyrazolo[3,4-c]azepine-5,4′-tetrahydropyran]-3-yl)propyl 3-isopropylsulfonylbenzoate] | < 100 | 
10 | CCn1nc(CC(C)(C)COC(=O)c2ccns2)c2c1C(=O)NCC1(CCOCC1)C2 [Example 303, [3-(1-ethyl-8-oxo-spiro[6,7-dihydro-4H-pyrazolo[3,4-c]azepine-5,4′-tetrahydro-pyran]-3-yl)-2,2-dimethyl-propyl] isothiazole-5-carboxylate] |  | IC50 (Table 17, Examples 297-316): < 100 nM
11 | CCn1nc(CC(C)(C)COC(=O)c2ccc(S(=O)(=O)N3CCOCC3)cc2)c2c1C(=O)NCC1(CCOCC1)C2 [Example 213, [3-(1-ethyl-8-oxo-spiro[6,7-dihydro-4H-pyrazolo[3,4-c]azepine-5,4′-tetrahydropyran]-3-yl)-2,2-dimethyl-propyl] 4-morpholinosulfonylbenzoate] | < 100 | 
12 | CCn1nc(C[C@@H](C)COC(=O)C2CCOCC2)c2c1C(=O)NCC1(CCOCC1)C2 [Example 287, [(2R)-3-(1-ethyl-8-oxo-spiro[6,7-dihydro-4H-pyrazolo[3,4-c]azepine-5,4′-tetrahydropyran]-3-yl)-2-methyl-propyl] tetrahydropyran-4-carboxylate] |  | IC50 (Table 16, Examples 277-296): < 100 nM
13 | CCn1nc(CCCOC(=O)c2ccccc2)c2c1C(=O)NCC1(CCOCC1)C2 [Example 7, 3-(1-ethyl-8-oxo-spiro[6,7-dihydro-4H-pyrazolo[3,4-c]azepine-5,4′-tetrahydropyran]-3-yl)propyl benzoate] | < 100 | 
14 | CCn1nc(CCCOC(=O)c2ccc(C(=O)N3CCCC3)cc2)c2c1C(=O)NCC1(CCOCC1)C2 [Example 107, 3-(1-ethyl-8-oxo-spiro[6,7-dihydro-4H-pyrazolo[3,4-c]azepine-5,4′-tetrahydro-pyran]-3-yl)propyl 4-(pyrrolidine-1-carbonyl)benzoate] | < 100 | 
15 | CCn1nc(CCCOC(=O)c2ccc(C)cc2OC)c2c1C(=O)NCC1(CCOCC1)C2 [Example 34, 3-(1-ethyl-8-oxo-spiro[6,7-dihydro-4H-pyrazolo[3,4-c]azepine-5,4′-tetrahydropyran]-3-yl)propyl 2-methoxy-4-methyl-benzoate] | < 100 | 
16 | CCn1nc(CC(C)(C)COC(=O)c2ccc(C(=O)N3CCCCC3)cc2)c2c1C(=O)NCC1(CCOCC1)C2 [Example 222, [3-(1-ethyl-8-oxo-spiro[6,7-dihydro-4H-pyrazolo[3,4-c]azepine-5,4′-tetrahydro-pyran]-3-yl)-2,2-dimethyl-propyl] 4-(piperidine-1-carbonyl)benzoate] | < 100 | 
17 | CCn1nc(CCCOC(=O)c2cccc(S(=O)(=O)N3CCOCC3)c2)c2c1C(=O)NCC1(CCOCC1)C2 [Example 99, 3-(1-ethyl-8-oxo-spiro[6,7-dihydro-4H-pyrazolo[3,4-c]azepine-5,4′-tetrahydropyran]-3-yl)propyl 3-morpholinosulfonylbenzoate] | < 100 | 
18 | CCn1nc(CC(C)(C)COC(=O)c2ccc(C(=O)N3CCN(C(C)=O)CC3)cc2)c2c1C(=O)NCC1(CCOCC1)C2 [Example 225, [3-(1-ethyl-8-oxo-spiro[6,7-dihydro-4H-pyrazolo[3,4-c]azepine-5,4'-tetrahydropyran]-3-yl)-2,2-dimethyl-propyl] 4-(4-acetylpiperazine-1-carbonyl)benzoate] | < 100 | 
19 | CCn1nc(CCCOC(=O)c2ccc(C#N)c(F)c2)c2c1C(=O)NCC1(CCOCC1)C2 [Example 32, 3-(1-ethyl-8-oxo-spiro[6,7-dihydro-4H-pyrazolo[3,4-c]azepine-5,4′-tetrahydropyran]-3-yl)propyl 4-cyano-3-fluoro-benzoate] | < 100 | 
20 | CCn1nc(CCCOC(=O)c2cccc(C(=O)N3CCCC3)c2)c2c1C(=O)NCC1(CCOCC1)C2 [Example 116, 3-(1-ethyl-8-oxo-spiro[6,7-dihydro-4H-pyrazolo[3,4-c]azepine-5,4′-tetrahydropyran]-3-yl)propyl 3-(pyrrolidine-1-carbonyl)benzoate] | < 100 | 
21 | CCn1nc(CC(C)(C)COC(=O)C2CCN(C(=O)N(C)C)CC2)c2c1C(=O)NCC1(CCOCC1)C2 [Example 316, [3-(1-ethyl-8-oxo-spiro[6,7-dihydro-4H-pyrazolo[3,4-c]azepine-5,4′-tetrahydro-pyran]-3-yl)-2,2-dimethyl-propyl] 1-(dimethylcarbamoyl)-piperidine-4-carboxylate] |  | IC50 (Table 17, Examples 297-316): < 100 nM
22 | CCn1nc(CCCOC(=O)c2cccc(C(=O)N(C)C)c2)c2c1C(=O)NCC1(CCOCC1)C2 [Example 115, 3-(1-ethyl-8-oxo-spiro[6,7-dihydro-4H-pyrazolo[3,4-c]azepine-5,4′-tetrahydropyran]-3-yl)propyl 3-(dimethyl-carbamoyl)benzoate] | < 100 | 
23 | CCn1nc(C[C@@H](C)COC(=O)c2cccc(C(=O)N3CCN(C(C)=O)CC3)c2)c2c1C(=O)NCC1(CCOCC1)C2 [Example 185, [(2R)-3-(1-ethyl-8-oxo-spiro[6,7-dihydro-4H-pyrazolo[3,4-c]azepine-5,4′-tetrahydropyran]-3-yl)-2-methyl-propyl] 3-(4-acetylpiperazine-1-carbonyl)benzoate] | < 100 | 
24 | CCn1nc(CCOC(=O)c2cnsc2)c2c1C(=O)NCC1(CCOCC1)C2 [Example 275, 2-(1-ethyl-8-oxo-spiro[6,7-dihydro-4H-pyrazolo[3,4-c]azepine-5,4′-tetrahydropyran]-3-yl)ethyl isothiazole-4-carboxylate] | < 100 | 
25 | CCn1nc(C[C@@H](C)COC(=O)c2csc(C)n2)c2c1C(=O)NCC1(CCOCC1)C2 [Example 290, [(2R)-3-(1-ethyl-8-oxo-spiro[6,7-dihydro-4H-pyrazolo[3,4-c]azepine-5,4′-tetrahydropyran]-3-yl)-2-methyl-propyl] 2-methylthiazole-4-carboxylate] |  | IC50 (Table 16, Examples 277-296): < 100 nM
26 | CCn1nc(CCCOC(=O)c2ccc(Cl)cc2F)c2c1C(=O)NCC1(CCOCC1)C2 [Example 53, 3-(1-ethyl-8-oxo-spiro[6,7-dihydro-4H-pyrazolo[3,4-c]azepine-5,4′-tetrahydropyran]-3-yl)propyl 4-chloro-2-fluoro-benzoate] | < 100 | 
27 | CCn1nc(C[C@@H](C)COC(=O)c2cscn2)c2c1C(=O)NCC1(CCOCC1)C2 [Example 285, [(2R)-3-(1-ethyl-8-oxo-spiro[6,7-dihydro-4H-pyrazolo[3,4-c]azepine-5,4′-tetrahydropyran]-3-yl)-2-methyl-propyl] thiazole-4-carboxylate] |  | IC50 (Table 16, Examples 277-296): < 100 nM
28 | CCn1nc(CCCOC(=O)c2ccc(C(F)(F)F)cc2)c2c1C(=O)NCC1(CCOCC1)C2 [Example 62, 3-(1-ethyl-8-oxo-spiro[6,7-dihydro-4H-pyrazolo[3,4-c]azepine-5,4′-tetrahydropyran]-3-yl)propyl 4-(trifluoromethyl)benzoate] | < 100 | 
29 | CCn1nc(C[C@@H](C)COC(=O)CCS(C)(=O)=O)c2c1C(=O)NCC1(CCOCC1)C2 [Example 152, [(2R)-3-(1-ethyl-8-oxo-spiro[6,7-dihydro-4H-pyrazolo[3,4-c]azepine-5,4′-tetrahydropyran]-3-yl)-2-methyl-propyl] 3-methylsulfonylpropanoate] | < 100 | 
